Laboratory results as given in patent publication US11691949B2, “Quinoline sulfonamide compounds and their use as antibacterial agents” (OTAGO INNOVATION LIMITED, priority 2017, dated 2023).
≈ marks a conversion by molar mass, not a printed value. Counter-ions that a name gives are not always drawn. Like-named read-outs stand apart in the source and are kept apart here.

Assays:
Assay type in all cases: cell-based
[1] = test system: S. uberis ATCC 19436; test: MIC by broth microdilution, S. uberis; conditions: Streptococcus uberis
Procedure, shortened: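 The MIC against S. uberis ATCC 19436 was the lowest compound concentration showing no growth by OD600 after 24 h at 37° C. with 200 rpm shaking. Cultures grown overnight were adjusted to OD600 ~0.025 so wells held approximately 5×10^5 cfu/mL in THB. Two-fold dilution series were made at a final volume of 200 μl. Media and untreated controls were run in triplicate on each plate.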

[2] = test system: S. aureus ATCC 6538; test: MIC by broth microdilution, S. aureus; conditions: Staphylococcus aureus
Procedure, shortened: (§1)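 Media: TSB or CAMHB for S. aureus, LB or CAMHB for E. coli, with zinc sulphate to 50 μM final where required. Cells at ~5×10^5 cfu/mL met two-fold compound series; growth was scored by OD600 after 24 h shaking at 37° C.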

[3] = test system: E. coli ATCC 10596; test: MIC by broth microdilution, E. coli; conditions: Escherichia coli
Procedure, shortened: as §1

[4] = ATCC19436, No Zinc, read-out: S. uberis ATCC 19436 MIC
[5] = ATCC19436, Zinc (50 μM), read-out: S. uberis ATCC 19436 MIC
[6] = ATCC6538, No Zinc, read-out: S. aureus ATCC 6538 MIC
[7] = ATCC6538, Zinc (50 μM), read-out: S. aureus ATCC 6538 MIC
[8] = ATCC 10536 / ATCC 10596, No Zinc, read-out: E. coli ATCC 10536 MIC
[9] = ATCC 10536 / ATCC 10596, Zinc (50 μM), read-out: E. coli ATCC 10536 MIC
[10] = ATCC19436, read-out: S. uberis ATCC 19436 MIC, No Zinc
[11] = ATCC19436, read-out: S. uberis ATCC 19436 MIC, Zinc (50 μM)
[12] = ATCC6538, read-out: S. aureus ATCC 6538 MIC, No Zinc
[13] = ATCC6538, read-out: S. aureus ATCC 6538 MIC, Zinc (50 μM)
[14] = ATCC 10536 / ATCC 10596, read-out: E. coli ATCC 10536 MIC, No Zinc
[15] = ATCC 10536 / ATCC 10596, read-out: E. coli ATCC 10536 MIC, Zinc (50 μM)

Structure (SMILES) | MIC [1, 4] | MIC [1, 5] | MIC [2, 6] | MIC [2, 7] | MIC [3, 8] | MIC [3, 9] | MIC [1, 10] | MIC [1, 11] | MIC [2, 12] | MIC [2, 13] | MIC [3, 14] | MIC [3, 15]
CN(C)Cc1ccc2cccc(NS(=O)(=O)c3ccc(C(N)=O)cc3)c2n1 [ZDR073, 4-(N-(2-((Dimethylamino)methyl)quinolin-8-yl)sulfamoyl)benzamide] | > 256 µg/mL | 8 µg/mL (≈ 20.8 µM) | > 256 µg/mL | > 256 µg/mL | > 256 µg/mL | > 256 µg/mL | – | – | – | – | – | –
CN(C)Cc1ccc2cccc(NS(=O)(=O)c3cccc4cccnc34)c2n1 [ZDR340, N-(2-((Dimethylamino)methyl)quinolin-8-yl)quinoline-8-sulfonamide] | 64 µg/mL (≈ 163 µM) | 0.25 µg/mL (≈ 0.637 µM) | > 256 µg/mL | 32 µg/mL (≈ 81.5 µM) | > 256 µg/mL | > 256 µg/mL | – | – | – | – | – | –
CN(C)Cc1ccc2cccc(NS(=O)(=O)c3cccc([N+](=O)[O-])c3)c2n1 [ZDR313, N-(2-((Dimethylamino)methyl)quinolin-8-yl)-3-nitrobenzenesulfonamide] | 128 µg/mL (≈ 331 µM) | 0.25 µg/mL (≈ 0.647 µM) | 128 µg/mL (≈ 331 µM) | > 256 µg/mL | > 256 µg/mL | > 256 µg/mL | – | – | – | – | – | –
CN(Cc1ccc2cccc(NS(=O)(=O)c3ccc(C(F)(F)F)cc3)c2n1)Cc1ccc2cccc(NS(=O)(=O)c3ccc(C(F)(F)F)cc3)c2n1 [ZDR037, N,N′-(((Methylazanediyl)bis(methylene))bis(quinoline-2,8-diyl))bis(4-(trifluoromethyl)benzenesulfonamide)] | > 256 µg/mL | 2 µg/mL (≈ 2.63 µM) | > 256 µg/mL | > 256 µg/mL | > 256 µg/mL | > 256 µg/mL | – | – | – | – | – | –
CN(C)Cc1ccc2cccc(NS(=O)(=O)c3ccc(S(N)(=O)=O)cc3)c2n1 [ZDR154, N-(2-((Dimethylamino)methyl)quinolin-8-yl)benzene-1,4-disulfonamide] | > 256 µg/mL | 16 µg/mL (≈ 38 µM) | > 256 µg/mL | > 256 µg/mL | > 256 µg/mL | > 256 µg/mL | – | – | – | – | – | –
C=CS(=O)(=O)Nc1cccc2ccc(CN(C)C)nc12 [ZDR500, N-(2-((Dimethylamino)methyl)quinolin-8-yl)ethenesulfonamide] | > 256 µg/mL | 0.5 µg/mL (≈ 1.72 µM) | 256 µg/mL (≈ 879 µM) | > 256 µg/mL | > 256 µg/mL | > 256 µg/mL | – | – | – | – | – | –
CN(C)Cc1ccc2cccc(NS(=O)(=O)c3ccc(SC(F)(F)F)cc3)c2n1 [ZDR330, N-(2-((Dimethylamino)methyl)quinolin-8-yl)-4-((trifluoromethyl)thio)benzenesulfonamide] | 128 µg/mL (≈ 290 µM) | 0.125 µg/mL (≈ 0.283 µM) | 32 µg/mL (≈ 72.5 µM) | 32 µg/mL (≈ 72.5 µM) | > 256 µg/mL | > 256 µg/mL | – | – | – | – | – | –
CN(C)CCCC(=O)NCc1ccc2cccc(NS(=O)(=O)c3ccc(C(F)(F)F)cc3)c2n1 [ZDR211, 4-(Dimethylamino)-N-((8-((4-(trifluoromethyl)phenyl)sulfonamido)quinolin-2-yl)methyl)butanamide trifluoroacetate] | – | – | – | – | – | – | 64 µg/mL | 16 µg/mL | 128 µg/mL | 64 µg/mL | 128 µg/mL | 128 µg/mL
CN(C)Cc1ccc2cccc(NS(=O)(=O)c3cccc(OC(F)(F)F)c3)c2n1 [ZDR085, N-(2-((Dimethylamino)methyl)quinolin-8-yl)-3-(trifluoromethoxy)benzenesulfonamide] | 128 µg/mL (≈ 301 µM) | < 0.125 µg/mL | 256 µg/mL (≈ 602 µM) | > 256 µg/mL | 256 µg/mL (≈ 602 µM) | > 256 µg/mL | – | – | – | – | – | –
O=C(CNCc1ccc2cccc(NS(=O)(=O)c3ccc(C(F)(F)F)cc3)c2n1)NC(CO)(CO)CO [ZDR265, N-(1,3-Dihydroxy-2-(hydroxymethyl)propan-2-yl)-2-(((8-((4-(trifluoromethyl)phenyl)sulfonamido)quinolin-2-yl)methyl)amino)acetamide trifluoroacetate] | – | – | – | – | – | – | 128 µg/mL | 256 µg/mL | 64 µg/mL | 64 µg/mL | 256 µg/mL | 256 µg/mL
COCCOCCOCCNCc1ccc2cccc(NS(=O)(=O)c3ccc(C(F)(F)F)cc3)c2n1 [ZDR132, N-(2-(5,8,11-Trioxa-2-azadodecyl)quinolin-8-yl)-4-(trifluoromethyl)benzenesulfonamide] | 64 µg/mL (≈ 121 µM) | 1 µg/mL (≈ 1.9 µM) | 64 µg/mL (≈ 121 µM) | 256 µg/mL (≈ 485 µM) | 256 µg/mL (≈ 485 µM) | 256 µg/mL (≈ 485 µM) | – | – | – | – | – | –
N/C(=N\[N+](=O)[O-])NCc1ccc2cccc(NS(=O)(=O)c3ccc(C(F)(F)F)cc3)c2n1 [ZDR188, (E)-N-(2-((2-Nitroguanidino)methyl)quinolin-8-yl)-4-(trifluoromethyl)benzenesulfonamide] | > 256 µg/mL | 0.5 µg/mL (≈ 1.07 µM) | > 256 µg/mL | > 256 µg/mL | > 256 µg/mL | > 256 µg/mL | – | – | – | – | – | –
O=S(=O)(Nc1cccc2ccc(CNCc3ccncc3)nc12)c1ccc(C(F)(F)F)cc1 [ZDR110, N-(2-(((Pyridin-4-ylmethyl)amino)methyl)quinolin-8-yl)-4-(trifluoromethyl)benzenesulfonamide] | > 256 µg/mL | 4 µg/mL (≈ 8.47 µM) | > 256 µg/mL | > 256 µg/mL | > 256 µg/mL | > 256 µg/mL | – | – | – | – | – | –
O=S(=O)(NCc1ccc2cccc(NS(=O)(=O)c3ccc(C(F)(F)F)cc3)c2n1)c1ccccc1 [ZDR210, N-(2-(Phenylsulfonamidomethyl)quinolin-8-yl)-4-(trifluoromethyl)benzenesulfonamide] | > 256 µg/mL | 0.25 µg/mL (≈ 0.479 µM) | > 256 µg/mL | > 256 µg/mL | > 256 µg/mL | > 256 µg/mL | – | – | – | – | – | –
Cc1ccc(S(=O)(=O)Nc2cccc3ccc(CN(C)C)nc23)cc1 [ZDR062, N-(2-((Dimethylamino)methyl)quinolin-8-yl)-4-methylbenzenesulfonamide] | 256 µg/mL (≈ 720 µM) | 0.25 µg/mL (≈ 0.703 µM) | 256 µg/mL (≈ 720 µM) | > 256 µg/mL | > 256 µg/mL | > 256 µg/mL | – | – | – | – | – | –
NC(=S)N/N=C/c1ccc2cccc(NS(=O)(=O)c3ccc(C(F)(F)F)cc3)c2n1 [ZDR046, (E)-2-((8-((4-(Trifluoromethyl)phenyl)sulfonamido)quinolin-2-yl)methylene)hydrazine-1-carbothioamide] | 4 µg/mL (≈ 8.82 µM) | 1 µg/mL (≈ 2.21 µM) | 4 µg/mL (≈ 8.82 µM) | 4 µg/mL (≈ 8.82 µM) | > 256 µg/mL | > 256 µg/mL | – | – | – | – | – | –
NCc1ccc2cccc(NS(=O)(=O)c3ccc(C(F)(F)F)cc3)c2n1 [ZDR184, N-(2-(Aminomethyl)quinolin-8-yl)-4-(trifluoromethyl)benzenesulfonamide] | 32 µg/mL (≈ 83.9 µM) | 0.5 µg/mL (≈ 1.31 µM) | 8 µg/mL (≈ 21 µM) | 4 µg/mL (≈ 10.5 µM) | 64 µg/mL (≈ 168 µM) | 128 µg/mL (≈ 336 µM) | – | – | – | – | – | –
CN(C)Cc1ccc2cccc(NS(=O)(=O)c3ccc(Br)cc3)c2n1 [ZDR305, 4-Bromo-N-(2-((dimethylamino)methyl)quinolin-8-yl)benzenesulfonamide] | > 256 µg/mL | 0.0625 µg/mL (≈ 0.149 µM) | 64 µg/mL (≈ 152 µM) | 128 µg/mL (≈ 305 µM) | > 256 µg/mL | > 256 µg/mL | – | – | – | – | – | –
CN(C)Cc1ccc2cccc(NS(=O)(=O)c3ccc(OC(F)(F)F)cc3)c2n1 [ZDR066, N-(2-((Dimethylamino)methyl)quinolin-8-yl)-4-(trifluoromethoxy)benzenesulfonamide] | 128 µg/mL (≈ 301 µM) | 0.0625 µg/mL (≈ 0.147 µM) | 256 µg/mL (≈ 602 µM) | > 256 µg/mL | > 256 µg/mL | > 256 µg/mL | – | – | – | – | – | –
